Data from patent publication US6849598B1, “Therapeutic compositions comprising bactericidal/permeability-increasing (BPI) protein products” (XOMA, priority 1995, dated 2005).
≈ marks a conversion by molar mass, not a printed value. Read-outs that look alike come from different tables or passages of the source.

Assays:
[1] = test system: P. aeruginosa (ATCC 19660); experiment: Antibiotic susceptibility (MIC, Microscan® MIC Plus Type 2 panel) with rBPI21/P123 and EDTA; format: cell-based; parameters: key to susceptibility interpretation of MIC (superscript): R: resistant; I: intermediate; S: susceptible; conditions: for effect of EDTA added to the rBPI21/P123 formulation on susceptibility of the strain to the antibiotic: summary of Table 17
Method: In additional experiments, a BPI protein product, rBPI21, was formulated with an anti-bacterial activity enhancing poloxamer, specifically PLURONIC P123, and with various concentrations of EDTA, and was evaluated for its effect on the antibiotic susceptibility of a Pseudomonas aeruginosa (ATCC 19660). Antibiotic susceptibility was determined using Microscan® panel plates (Dade Microscan, West Sacramento, Calif.) that allow simultaneous determination of minimum inhibitory concentrations for a number of different antibiotics.
The antimicrobial susceptibility tests performed on the Microscan® panel plates are miniaturizations of the broth dilution susceptibility test. Antimicrobial agents are serially diluted in Mueller-Hinton broth (supplemented with calcium and magnesium, or with sodium chloride for oxacillin, or with thymidine phosphorylase for trimethoprim, sulfamethoxazole and trimethoprim/ sulfamethoxazole) to concentrations bridging the range of clinical interest. One well on the 96-well Microscan® plate is a growth control well that contains dehydrated broth only. The remaining wells contain dehydrated broth and antibiotic (or broth and biochemical reagent indicator), which is rehydrated to the desired concentration by inoculation of a standardized suspension of test organism. The chromogenic biochemical agent indicators are used to identify and characterize the species of bacteria based on detection of pH changes and substrate utilization. […] Gram-negative and gram positive organisms may be tested using any of the Microscan® panel plates (Microscan®, Dade Microscan, West Sacramento, Calif.). In these experiments with P. aeruginosa, the MIC Plus Type 2 panel plates were used. The concentrations of antibiotics tested in this panel plate are shown below in Table 16. The antibiotic susceptibility standards (interpretation of an MIC as resistant, intermediate or susceptible according to Microscan®'s NCCLS-derived standards) applicable to the gram-negative organisms that may be tested in each panel plate appear below in Table 16A.
For these experiments with P. aeruginosa, the following procedure was performed: The organism was streaked onto TSA plates (Remel, Lenexa, Kans.) and incubated for 18-24 hours overnight. Well-isolated A, colonies from the plates were emulsified in 3 ml of sterile Inoculum Water d(catalog no. B1015-2, MicrosScan® system, Dade Microscan, West Sacramento, Calif.) to a final turbidity equivalent to 0.5 McFarland Barium Sulfate standard. This cell suspension was vortexed for 2 to 3 seconds and 100 μl was transferred to glass tubes containing 25 ml of Inoculum Water with Pluronic-D (catalog no. B1015-7, MicroScan® system, Dade Microscan, West Sacramento, Calif.) (hereinafter “Pluronic Inoculum Water”), or 25 ml of Pluronic Inoculum Water into which rBPI21 in 0.2% PLURONIC P123, 0.002% TWEEN 80, 5mM sodium citrate, 150 mM NaCl (“rBPI21/P123”) had been diluted to 64 μg/ml rBPI21.
The 25 ml of this inoculum containing rBPI21 was mixed by inversion and poured into a tray. The inoculum was drawn up into a manual 96-well pipetting system (RENOK^− rehydrator-inoculator system, Dade Microscan, West Sacramento, Calif.) designed for use with the Microscan® panel plates, and 110 μl of the inoculum was delivered to each well of a Microscan® MIC Plus Type 2 panel plate. When added to the wells, this inoculum achieves a final bacterial concentration of 4×10^5 to 7×10^5 CFU/ml. The panel plates were then incubated at 35° C. for 15-24 hours and read visually for cell growth.
No growth was defined as a slight whiteness in the well or a clear broth. Growth appeared as turbidity which could take the form of a white haze throughout the well, a white button in the center of the well, or a fine granule growth throughout the well. All wells were read against a black indirectly lighted background. Visual results of the biochemical reactions were read into a database for bacterial identification.

A. baumannii = experiment: Antibiotic susceptibility (MIC, Sensititre Trays) with rBPI21 poloxamer formulations; format: cell-based; conditions: for MIC: Acinetobacter baumannii, read-out: Minimum Inhibitory Concentration
Method: The effect of therapeutic compositions of rBPI21 formulated with poloxamer, with or without EDTA, was evaluated on the antibiotic susceptibility of the multiple drug resistant A. baumannii, S. pneumoniae, E. faecium and P. aeruginosa organisms of Example 5. Therapeutic compositions were prepared containing 2 mg/mL rBPI21, (5 mM sodium citrate, 150 mM NaCl) with a 0.2% (w/v) concentration of PLURONIC F68, P103, P104, P105 or P123. The effect on the antibiotic susceptibility of the organisms was determined in Mueller-Hinton Broth plus Cations (CSMHB, Remel), or 40% pooled human serum in CSMHB (Sigma, St. Louis, Mo.), as follows.
Isolated colonies of the organism from overnight cultures were suspended in Microscan® Inoculum Water to a concentration equivalent to a 0.5 McFarland Standard (approximately 1×10^8 CFU/ml), determined using a Microscan® turbidimeter. Aliquots were transferred to either CSMHB or 40% pooled human serum in CSMHB. Each tube contained either a final concentration of 16 μg/mL rBPI21 or an equivalent volume of control buffer. Minimal inhibitory concentrations (MIC) for each antibiotic tested, i.e. the lowest concentration of antibiotic which inhibits visible growth, were determined using gram-negative (MB and MC) and gram-positive (MA) Sensititre Trays (Radiometer America, Westlake, Ohio), which allow for the rapid and simultaneous survey of a broad spectrum of standard antibiotics. Any other antimicrobial panel systems known in the art, such as the Microscan® (Dade Microscan, Sacramento, Calif.), Pasco (DIFCO, Detroit, Mich.) and Alamar (Alamar, Sacramento, Calif.) systems, may alternatively be used to assay for antibiotic susceptibility.
Tables 12-15 below display a summary of the results of the antibiotic screening panels, reported for each strain tested as the MIC of the tested antibiotics in the presence of the indicated rBPI21 therapeutic composition. The antibiotic susceptibility standards (interpretation of an MIC as clinically resistant (R), intermediate (I) or susceptible (S) according to NCCLS standards) applicable to the organism tested appear in superscript next to the MIC.

[2] = rBPI21/P123 at 64 μg/ml rBPI21, With 0% EDTA
[3] = rBPI21/P123 at 64 μg/ml rBPI21, With 0.01% EDTA
[4] = rBPI21/P123 at 64 μg/ml rBPI21, With 0.05% EDTA
[5] = rBPI21/P123 at 64 μg/ml rBPI21, With 0.1% EDTA
[6] = CSMHB, 16 μg/mL rBPI21 with F68
[7] = CSMHB, 16 μg/mL rBPI21 with P103
[8] = CSMHB, 16 μg/mL rBPI21 with P104
[9] = CSMHB, 16 μg/mL rBPI21 with P105
[10] = CSMHB, 16 μg/mL rBPI21 with P123
[11] = Serum, 16 μg/mL rBPI21 with F68
[12] = Serum, 16 μg/mL rBPI21 with P103
[13] = Serum, 16 μg/mL rBPI21 with P104
[14] = Serum, 16 μg/mL rBPI21 with P105
[15] = Serum, 16 μg/mL rBPI21 with P123

| susceptibility interpretation of MIC (superscript) ([1]; Control (No BPI21)) | susceptibility interpretation of MIC (superscript) [1, 2] | susceptibility interpretation of MIC (superscript) [1, 3] | susceptibility interpretation of MIC (superscript) [1, 4] | susceptibility interpretation of MIC (superscript) [1, 5] | MIC (A. baumannii; [6]) | MIC (A. baumannii; [7]) | MIC (A. baumannii; [8]) | MIC (A. baumannii; [9]) | MIC (A. baumannii; [10]) | MIC (A. baumannii; CSMHB, Control (no BPI)) | MIC (A. baumannii; [11]) | MIC (A. baumannii; [12]) | MIC (A. baumannii; [13]) | MIC (A. baumannii; [14]) | SMILES | Minimum Inhibitory Concentration of Antibiotic ([1]; Control (No BPI21)) | Minimum Inhibitory Concentration of Antibiotic [1, 2] | Minimum Inhibitory Concentration of Antibiotic [1, 3] | Minimum Inhibitory Concentration of Antibiotic [1, 4] | Minimum Inhibitory Concentration of Antibiotic [1, 5] | other results |
| --- | --- | --- | --- | --- | --- | --- | --- | --- | --- | --- | --- | --- | --- | --- | --- | --- | --- | --- | --- | --- | --- |
| S | S | S | S | S | 32 µg/mL (≈ 58.5 µM) | < 4 µg/mL | < 4 µg/mL | < 4 µg/mL | < 4 µg/mL | 16 µg/mL (≈ 29.3 µM) | 32 µg/mL (≈ 58.5 µM) | 16 µg/mL (≈ 29.3 µM) | 16 µg/mL (≈ 29.3 µM) | 16 µg/mL (≈ 29.3 µM) | CC(C)(O/N=C(\C(=O)N[C@@H]1C(=O)N2C(C(=O)[O-])=C(C[n+]3ccccc3)CS[C@H]12)c1csc(N)n1)C(=O)O [Ceftazidime] | 2 µg/mL | < 1 µg/mL | < 1 µg/mL | < 1 µg/mL | < 1 µg/mL | MIC (A. baumannii; [15]): 16 µg/mL (≈ 29.3 µM); MIC (A. baumannii; Serum, Control (no BPI)): > 32 µg/mL; susceptibility interpretation of MIC (superscript) (A. baumannii; [6]): R; susceptibility interpretation of MIC (superscript) (A. baumannii; [7]): S; susceptibility interpretation of MIC (superscript) (A. baumannii; [8]): S; susceptibility interpretation of MIC (superscript) (A. baumannii; [9]): S; susceptibility interpretation of MIC (superscript) (A. baumannii; [10]): S; susceptibility interpretation of MIC (superscript) (A. baumannii; CSMHB, Control (no BPI)): I; susceptibility interpretation of MIC (superscript) (A. baumannii; [11]): R; susceptibility interpretation of MIC (superscript) (A. baumannii; [12]): I; susceptibility interpretation of MIC (superscript) (A. baumannii; [13]): I; susceptibility interpretation of MIC (superscript) (A. baumannii; [14]): I; susceptibility interpretation of MIC (superscript) (A. baumannii; [15]): I; susceptibility interpretation of MIC (superscript) (A. baumannii; Serum, Control (no BPI)): R |
| I | I | S | S | S | – | – | – | – | – | – | – | – | – | – | CO/N=C(\C(=O)N[C@@H]1C(=O)N2C(C(=O)O)=CCS[C@H]12)c1csc(N)n1 [Ceftizoxime] | 32 µg/mL | 16 µg/mL | < 2 µg/mL | 8 µg/mL | < 2 µg/mL | effect of EDTA added to the rBPI21/P123 formulation on susceptibility of the strain to the antibiotic [1]: increasing the susceptibility |
| I | S | S | S | S | > 128 µg/mL | < 1 µg/mL | < 1 µg/mL | < 1 µg/mL | < 1 µg/mL | 128 µg/mL (≈ 231 µM) | > 128 µg/mL | > 128 µg/mL | > 128 µg/mL | > 128 µg/mL | CO/N=C(\C(=O)N[C@@H]1C(=O)N2C(C(=O)O)=C(CSc3nc(=O)c(=O)[nH]n3C)CS[C@H]12)c1csc(N)n1 [Ceftriaxone] | 16 µg/mL | 4 µg/mL | 8 µg/mL | < 2 µg/mL | < 2 µg/mL | effect of EDTA added to the rBPI21/P123 formulation on susceptibility of the strain to the antibiotic [1]: increasing the susceptibility; MIC (A. baumannii; [15]): > 128 µg/mL; MIC (A. baumannii; Serum, Control (no BPI)): > 128 µg/mL; susceptibility interpretation of MIC (superscript) (A. baumannii; [6]): R; susceptibility interpretation of MIC (superscript) (A. baumannii; [7]): S; susceptibility interpretation of MIC (superscript) (A. baumannii; [8]): S; susceptibility interpretation of MIC (superscript) (A. baumannii; [9]): S; susceptibility interpretation of MIC (superscript) (A. baumannii; [10]): S; susceptibility interpretation of MIC (superscript) (A. baumannii; CSMHB, Control (no BPI)): R; susceptibility interpretation of MIC (superscript) (A. baumannii; [11]): R; susceptibility interpretation of MIC (superscript) (A. baumannii; [12]): R; susceptibility interpretation of MIC (superscript) (A. baumannii; [13]): R; susceptibility interpretation of MIC (superscript) (A. baumannii; [14]): R; susceptibility interpretation of MIC (superscript) (A. baumannii; [15]): R; susceptibility interpretation of MIC (superscript) (A. baumannii; Serum, Control (no BPI)): R |
